# According to patent US9867794B2, “Regulation of osteopontin” (Pathologica LLC, priority 2007, dated 2018):
# Where “and” joins values, the source holds several entries; their conditions need not be identical. Equal values may be shown once.
# Legend:
# FCGR1a = assay: Microarray analysis of mononuclear cells, FCGR1a; assay type: cell-based, human; conditions: for FCGR1a signal +, Average: 10 μM MGBG
# Protocol: (§1) Blood samples were obtained from HIV infected patients (N=9) with positive viral load and reduced CD4 counts, and non-HIV infected, healthy controls (N=6). Blood was collected into heparin anticoagulant tubes and mononuclear cells were isolated by Percoll gradient centrifugation. The cells from each sample were split into 2: one-half receives MGBG at concentration of 10 μM and the other half received no treatment. All samples were then cultured overnight in RPMI media with 10% fetal bovine serum at 37° C. under non-adherent conditions. The next day cells were collected by centrifugation, washed one time with PBS, and lysed by resuspension in TRIZOL, and total RNA was prepared according to manufacturer's instructions (Invitrogen, Carlsbad, Calif.). […] The RNA was then amplified for microarray analysis using a 2 cycle amplification protocol according to the manufacturer's instructions (Affymetrix, Santa Clara, Calif.). The amplified RNAs were then hybridized to Human Genome U133 plus 2.0 microarrays (Affymetrix) and expression data was obtained using an Affymetrix scanner and GCOS protocols. Microarray data was analyzed with GeneSpring Microarray Suite. Results were normalized using a set of 100 probe sets determined by the manufacturer to have relatively invariant expression across most cell types.
# OPN RNA = assay: OPN production inhibition assay in un-stimulated PBMC cultures, OPN RNA; assay type: cell-based; conditions: 10 μM, harvested 1, 3 and 6 days
# Protocol: 10 μM of each drug was added to un-stimulated PBMC cultures at time=0 and cells were harvested 1,3, and 6 days later for quantitative OPN RNA and protein production analysis.
# OPN = OPN antibody staining of brains and lymph nodes of SIV-infected animals; assay type: in vivo, Rhesus macaques
# Protocol: These monkeys were then treated with MGBG as described.
# Human Osteopontin (OPN) = assay: Osteopontin ELISA of PBMC cell culture supernatants (CCS); assay type: cell-based; conditions: for average OPN level in CCS: fifth day
# Excerpt: Peripheral Blood Mononuclear Cells (PBMCs) were isolated from patients diagnosed with Amyotrophic Lateral Sclerosis (ALS), Alzheimer's Disease (AD), Human Immunodeficiency Virus (HIV), Breast Cancer, AIDS Dementia, and healthy donors. The heparinised blood was mixed with equal volumes of sterile phosphate-buffered saline (Ca^++, Mg^++ free PBS) and layered over Percoll (Amersham Biosciences, Piscataway, N.J.) at 1.087 g/ml. The cells were centrifuged and the mononuclear cell layer was collected. The PBMCs were cultured in a concentration of 1×10^6 cells/ml in non-adherent conditions in polypropylene tubes containing complete media (RPMI 1640, 10% fetal bovine serum (HyClone, Logan, Utah), 1% Sodium Pyruvate) and incubated in a 5% CO2, 37° C. humidified incubator. The cells were grown in the presence of 0 μM, 0.1 μM, 1 μM, 10 μM, or 100 μM MGBG plus complete media and the cell culture supernatants (CCS) were isolated on the fifth day and frozen at −20° C. until ready to be tested. Human Osteopontin (OPN) levels were measured with the Human Osteopontin ELISA kit (R&D Systems, Inc., Minneapolis, Minn.) according to manufacturer's instructions. The CCS were tested in duplicate and the Magellan v. 4.0 software (Salzburg, Austria) was used to analyze the results. The average OPN levels (ng/ml) in 0 μM, 0.1 μM, 1 μM, 10 μM, and 100 μM MGBG were measured. The results are depicted in FIGS. 3-7 as a graph comparing diseased sample with normal sample. […] The solid lines represent diseased cells and the dashed lines represent normal cells.
# LILRA1 = assay: Quantitative RT-PCR, unsorted mononuclear cells, LILRA1; assay type: cell-based, human
# Protocol: To evaluate the effect of MGBG on gene expression, blood samples were obtained from patients (N=18, 10 HIV-infected and 8 Healthy Controls). Mononuclear cells were isolated via Percoll gradient centrifugation. The cells were split into two tubes, one treated with 10 μM of MGBG and the other non-treated. The cells were then cultured overnight in RPMI media plus 10% fetal bovine serum at 37 C under non-adherent conditions, collected, lysed using Trizol solution, and total RNA prepared according to manufacturer's instructions (Invitrogen, Carlsbad, Calif.).
# Approximately 200 ng of total RNA prepared from each sample was converted to cDNA using the First Strand cDNA Synthesis Kit for RT-PCR [AMV] kit (Roche Applied Diagnostics, Indianapolis, Ind.) according to manufacturer's instructions. Around 5 ng of cDNA sample was then used for PCR performed on a LightCycler (Roche Applied Diagnostics, Indianapolis, Ind.) using the LightCycler FastStart DNA Master SYBR Green I kit. PCR conditions are as follows: 1 cycle of denaturation at 95° C. for 10 minutes, followed by 45 cycles of 95° C. for 10 seconds, 68° C. for 10 seconds, and 72° C. for 16 seconds.
# The sequences of gene-specific primers evaluated are listed below. All samples were also amplified with the human β-actin LightCycler-Primer set (Roche Diagnostics).
# HeLa cell = assay: Migration assay, HeLa cell invasion into a Matrigel matrix; assay type: cell-based; conditions: 10 μM MGBG
# Protocol: Additionally, cells being targeted by MGBG were investigated. […] To elucidate the effects of MGBG and OPN on cell motility, migration assays were conducted. MGBG at 10 μM inhibited macrophage Osteopontin production from >200 ng/mL to nondetectable levels while simultaneously inhibiting HeLa cell invasion into a Matrigel matrix.
# mononuclear cells = assay: Microarray analysis, number of probes changed; assay type: cell-based, human; conditions: average signals, MGBG vs untreated samples
# Protocol: as §1
smiles,measurement,setting,value
"CC(/C=N/NC(=N)N)=N\NC(=N)N [MGBG, 1,1′ [methylethanediylidene]dinitrilodiguanidine]","FCGR1a signal +, Average",FCGR1a; average of HIV samples,439
same,"FCGR1a signal +, Average","FCGR1a; average of control samples (C6-, M6-177)",608
same,"FCGR1A fold change, ON/MGBG ratio (down-regulation)","FCGR1a; 10 μM, individual donor samples",9.2 fold and 1.3 fold and 0.3 fold (3×) and 0.9 fold (2×) and 0.1 fold and 4.3 fold and 2.7 fold and 2.5 fold and 2.2 fold and 0.4 fold and 12.3 fold and 1.0 fold
same,samples with FCGR1A down-regulated more than 2 fold,FCGR1a; HIV samples,6 of 9
same,FCGR1a signal +,"FCGR1a; presence of 10 μM MGBG overnight, individual donor samples",415 and 461 and 59 and 800 and 1561 and 136 and 51 and 612 and 53 and 1362 and 1435 and 264 and 33 and 14 and 347
same,OPN RNA expression,OPN RNA,inhibited in a time dependant manner
same,"OPN in brains, antibody staining","OPN; FIG. 10, treated SIV-infected animals",complete removal of OPN
same,OPN staining in lymph nodes,"OPN; FIG. 11, treated animals B146 and CB18",markedly decreased levels of OPN
same,average OPN level in CCS,"Human Osteopontin (OPN); AD PBMCs (n=1), 0.1 μM MGBG",0.477 ng/mL
same,average OPN level in CCS,"Human Osteopontin (OPN); AD PBMCs (n=1), 1 μM MGBG",0.201 ng/mL
same,average OPN level in CCS,"Human Osteopontin (OPN); AD PBMCs (n=1), 10 μM MGBG",0.136 ng/mL
same,average OPN level in CCS,"Human Osteopontin (OPN); AD PBMCs (n=1), 100 μM MGBG",0 ng/mL
same,average CCS OPN value,"Human Osteopontin (OPN); AIDS Dementia PBMCs (AIRL2005-374), 10 μM MGBG",0.8905
same,average CCS OPN value,"Human Osteopontin (OPN); ALS PBMCs (n=2), 10 μM MGBG",17.669
same,average OPN level in CCS,"Human Osteopontin (OPN); HIV PBMCs (n=2), 0.1 μM MGBG",11.833 ng/mL
same,average OPN level in CCS,"Human Osteopontin (OPN); HIV PBMCs (n=2), 1 μM MGBG",3.481 ng/mL
same,average OPN level in CCS,"Human Osteopontin (OPN); HIV PBMCs (n=2), 10 μM MGBG",0.447 ng/mL
same,average OPN level in CCS,"Human Osteopontin (OPN); HIV PBMCs (n=2), 100 μM MGBG",0 ng/mL
same,average OPN level in CCS,"Human Osteopontin (OPN); breast cancer PBMCs (n=3), 0.1 μM MGBG",20.89 ng/mL
same,average OPN level in CCS,"Human Osteopontin (OPN); breast cancer PBMCs (n=3), 1 μM MGBG",8.87 ng/mL
same,average OPN level in CCS,"Human Osteopontin (OPN); breast cancer PBMCs (n=3), 10 μM MGBG",2.12 ng/mL
same,average OPN level in CCS,"Human Osteopontin (OPN); breast cancer PBMCs (n=3), 100 μM MGBG",0.84 ng/mL
same,average OPN level in CCS,"Human Osteopontin (OPN); healthy/normal PBMCs (n=3), 0.1 μM MGBG",9.69 ng/mL
same,average OPN level in CCS,"Human Osteopontin (OPN); healthy/normal PBMCs (n=3), 1 μM MGBG",4.85 ng/mL
same,average OPN level in CCS,"Human Osteopontin (OPN); healthy/normal PBMCs (n=3), 10 μM MGBG",1.07 ng/mL
same,average OPN level in CCS,"Human Osteopontin (OPN); healthy/normal PBMCs (n=3), 100 μM MGBG",0.14 ng/mL
same,Fold change LILRA1 by QRT-PCR,"LILRA1; 10 μM MGBG overnight, individual samples",−1.91 fold and 1.01 fold and −3.10 fold and 1.31 fold and −2.87 fold and 1.52 fold and −3.97 fold and −2.27 fold and 1.11 fold and 1.34 fold and −4.79 fold and −1.31 fold and 1.28 fold and 13.45 fold
same,LILRA1 AVERAGE,"LILRA1; 10 μM MGBG, all samples",1.71 fold
same,LILRA1 MAX,"LILRA1; 10 μM MGBG, all samples",13.45 fold
same,LILRA1 MIN,"LILRA1; 10 μM MGBG, all samples",−4.79 fold
same,HeLa cell invasion into a Matrigel matrix,HeLa cell,inhibiting
same,probes down-regulated at least 1.5 fold,mononuclear cells,489 probes
same,probes up-regulated at least 1.5 fold,mononuclear cells,382 probes
